Reference: PubChem BioAssay (NCI)
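Tested at 5 concentrations; 48 h exposure; 96-well plates; endpoints linearly interpolated, else capped at highest concentration. TGI: total growth inhibition.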

Columns and labels:
Assay in all cases: inhibition of tumour cell growth, NCI panel, 48 h
[1] = system: ACHN renal
[2] = system: COLO 205 colon
[3] = system: HCC-2998 colon
[4] = system: HCT-116 colon
[5] = system: HCT-15 colon
[6] = system: HOP-62 NSCLC
[7] = system: K-562 leukemia
[8] = system: KM12 colon
[9] = system: MALME-3M melanoma
[10] = system: MCF7 breast
[11] = system: OVCAR-5 ovarian
[12] = system: OVCAR-8 ovarian
[13] = system: PC-3 prostate
[14] = system: SF-268 CNS
[15] = system: SK-MEL-2 melanoma
[16] = system: SW-620 colon
[17] = system: UACC-257 melanoma
[18] = system: NCI-H460 lung
[19] = system: SR leukemia
[20] = system: MDA-N

CC(C)(C)c1cc(C(=O)Nc2cc(Br)c(Br)cc2S(N)(=O)=O)cc(C(C)(C)C)c1O
TGI [1]: 23.4 µM
TGI [2]: 19.1 µM
TGI [3]: 18.1 µM
TGI [4]: 20.5 µM
TGI [5]: 16.8 µM
TGI [6]: 35.3 µM
TGI [7]: 25.7 µM
TGI [8]: 36.4 µM
TGI [9]: 26.6 µM
TGI [10]: 18.8 µM
TGI [11]: 24.9 µM
TGI [12]: 26.6 µM
TGI [13]: 22.9 µM
TGI [14]: 29 µM
TGI [15]: 22.7 µM
TGI [16]: 21.4 µM
TGI [17]: 33.1 µM

ON/N=C/c1cc2c(cc1Br)OCO2
TGI [1]: > 386 µM
TGI [2]: > 386 µM
TGI [3]: > 386 µM
TGI [4]: > 386 µM
TGI [6]: > 386 µM
TGI [7]: > 386 µM
TGI [8]: > 386 µM
TGI [9]: > 386 µM
TGI [18]: > 386 µM
TGI [11]: > 386 µM
TGI [12]: > 386 µM
TGI [14]: > 386 µM
TGI [15]: > 386 µM
TGI [19]: > 386 µM
TGI [16]: > 386 µM
TGI [17]: > 386 µM

Oc1ccc(-c2csc(NNC3=NC/C(=C/c4ccc5c(c4)OCO5)S3)n2)cc1O
TGI [1]: > 100 µM
TGI [2]: > 100 µM
TGI [3]: > 100 µM
TGI [4]: > 100 µM
TGI [5]: > 100 µM
TGI [6]: > 100 µM
TGI [8]: > 100 µM
TGI [10]: > 100 µM
TGI [20]: > 100 µM
TGI [18]: > 100 µM
TGI [11]: > 100 µM
TGI [12]: > 100 µM
TGI [13]: > 100 µM
TGI [15]: > 100 µM
TGI [16]: > 100 µM
TGI [17]: > 100 µM

O=C(OCc1ccccc1CN1CCOCC1)c1cccc(Br)c1
TGI [1]: > 100 µM
TGI [2]: > 100 µM
TGI [3]: > 100 µM
TGI [4]: > 100 µM
TGI [5]: > 100 µM
TGI [6]: > 100 µM
TGI [7]: > 100 µM
TGI [9]: 45 µM
TGI [10]: > 100 µM
TGI [18]: > 100 µM
TGI [11]: > 100 µM
TGI [12]: > 100 µM
TGI [13]: > 100 µM
TGI [14]: > 100 µM
TGI [15]: 52.9 µM
TGI [16]: > 100 µM
TGI [17]: 63.4 µM

Nc1sc2c(c1C(=O)c1ccc(Cl)c(Cl)c1)CCCC2
TGI [1]: > 100 µM
TGI [2]: > 100 µM
TGI [3]: 49.3 µM
TGI [4]: > 100 µM
TGI [5]: > 100 µM
TGI [6]: > 100 µM
TGI [7]: > 100 µM
TGI [8]: > 100 µM
TGI [9]: > 100 µM
TGI [10]: 64.8 µM
TGI [18]: > 100 µM
TGI [11]: > 100 µM
TGI [12]: > 100 µM
TGI [13]: > 100 µM
TGI [14]: > 100 µM
TGI [15]: 44.1 µM
TGI [19]: > 100 µM
TGI [16]: > 100 µM
TGI [17]: > 100 µM

O=C(/C=C/c1ccc(OCCCOc2ccc(/C=C/C(=O)c3ccccc3)cc2)cc1)c1ccccc1
TGI [1]: > 100 µM
TGI [2]: > 100 µM
TGI [3]: > 100 µM
TGI [4]: > 100 µM
TGI [5]: > 100 µM
TGI [6]: > 100 µM
TGI [7]: > 100 µM
TGI [9]: > 100 µM
TGI [18]: > 100 µM
TGI [12]: > 100 µM
TGI [14]: > 100 µM
TGI [15]: > 100 µM
TGI [19]: > 100 µM
TGI [16]: > 100 µM
TGI [17]: > 100 µM

OC1[C@H]([C@H]2CCCC[C@@H]2O)CCC[C@@H]1[C@@H]1CCCC[C@H]1O (stereo partly specified)
TGI [1]: > 100 µM
TGI [2]: > 100 µM
TGI [3]: > 100 µM
TGI [4]: > 100 µM
TGI [5]: > 100 µM
TGI [6]: > 100 µM
TGI [7]: > 100 µM
TGI [8]: > 100 µM
TGI [9]: > 100 µM
TGI [18]: > 100 µM
TGI [11]: > 100 µM
TGI [12]: > 100 µM
TGI [14]: > 100 µM
TGI [15]: > 100 µM
TGI [19]: > 100 µM
TGI [16]: > 100 µM
TGI [17]: > 100 µM

OCC1OC(n2nc(-c3ccccc3)nc2-c2cnccn2)C(O)C(O)C1O (stereo unspecified)
TGI [2]: > 100 µM
TGI [3]: > 100 µM
TGI [4]: > 100 µM
TGI [5]: > 100 µM
TGI [6]: > 100 µM
TGI [7]: > 100 µM
TGI [8]: > 100 µM
TGI [10]: > 100 µM
TGI [20]: > 100 µM
TGI [18]: > 100 µM
TGI [11]: > 100 µM
TGI [12]: > 100 µM
TGI [13]: > 100 µM
TGI [16]: > 100 µM
TGI [17]: > 100 µM

O=C1/C(=C/c2ccccc2)CCCC1CN1CCCCC1 (stereo unspecified)
TGI [1]: 11.8 µM
TGI [2]: 10.4 µM
TGI [3]: 29 µM
TGI [4]: 3.15 µM
TGI [5]: 4.85 µM
TGI [6]: 35.5 µM
TGI [8]: 2.78 µM
TGI [9]: 3.97 µM
TGI [10]: 1.69 µM
TGI [20]: 4.13 µM
TGI [18]: 32.4 µM
TGI [11]: 33.8 µM
TGI [12]: 4.13 µM
TGI [13]: 24.1 µM
TGI [14]: 3.59 µM
TGI [15]: 15.8 µM
TGI [16]: 2.64 µM
TGI [17]: 22 µM

CC[C@@]1(N(C)C)C(=O)OCc2c1cc1n(c2=O)Cc2cc3ccccc3nc2-1
TGI [1]: 42.2 µM
TGI [2]: > 100 µM
TGI [3]: > 100 µM
TGI [4]: > 100 µM
TGI [5]: > 100 µM
TGI [6]: 36.2 µM
TGI [7]: > 100 µM
TGI [8]: > 100 µM
TGI [9]: 55.3 µM
TGI [10]: > 100 µM
TGI [18]: 50.6 µM
TGI [11]: > 100 µM
TGI [12]: 31.2 µM
TGI [13]: > 100 µM
TGI [14]: 36.7 µM
TGI [15]: 77.5 µM
TGI [16]: > 100 µM
TGI [17]: > 100 µM

Cc1ccc(S(=O)(=O)N2CCCN(S(=O)(=O)c3ccc(C)cc3)CCN(S(=O)(=O)c3ccc(C)cc3)CCCSCC2)cc1
TGI [1]: > 100 µM
TGI [2]: > 100 µM
TGI [3]: > 100 µM
TGI [4]: > 100 µM
TGI [6]: > 100 µM
TGI [7]: > 100 µM
TGI [10]: > 100 µM
TGI [20]: > 100 µM
TGI [18]: > 100 µM
TGI [11]: > 100 µM
TGI [12]: > 100 µM
TGI [14]: > 100 µM
TGI [15]: > 100 µM
TGI [16]: > 100 µM

COc1ccc(Oc2cccc(/C=C3/C(=O)Nc4ccccc43)c2)cc1
TGI [1]: 23.8 µM
TGI [2]: 14 µM
TGI [3]: 21.3 µM
TGI [4]: 15.2 µM
TGI [5]: 21.8 µM
TGI [6]: 28 µM
TGI [7]: 7.63 µM
TGI [8]: 18 µM
TGI [9]: 24.2 µM
TGI [10]: 12.8 µM
TGI [18]: 25 µM
TGI [11]: 31.5 µM
TGI [12]: > 100 µM
TGI [13]: 18.8 µM
TGI [14]: 24.1 µM
TGI [15]: 23 µM
TGI [16]: 23.2 µM
TGI [17]: 27.8 µM

CCC(C)n1c(C)nc2c1C(=O)c1ccccc1C2=O (stereo unspecified)
TGI [1]: > 100 µM
TGI [2]: > 100 µM
TGI [3]: > 100 µM
TGI [4]: > 100 µM
TGI [5]: > 100 µM
TGI [6]: > 100 µM
TGI [7]: > 100 µM
TGI [8]: > 100 µM
TGI [9]: 77.9 µM
TGI [18]: 50.8 µM
TGI [12]: > 100 µM
TGI [14]: > 100 µM
TGI [15]: > 100 µM
TGI [19]: > 100 µM
TGI [16]: > 100 µM
TGI [17]: 93.8 µM
